# Laboratory results reported in patent US20160206583A1, “AMINO ACID TREATMENT OF SEIZURES” (THE JOHNS HOPKINS UNIVERSITY, priority 2013, published 2016).
# How the values were obtained:
# [1] = system: kainic acid-induced seizures; experiment: Kainic acid status epilepticus test; type: in vivo, mice
# Method: Male NIH Swiss mice (NCI, Frederick, Md., U.S.A.) aged 3-4 weeks were acclimatized to the animal care facility for 1-5 days and housed four per cage. All mice were fed unrestricted normal rodent chow (Teklad Global 2018SX, Madison, Wis., U.S.A.). Only in experiments lasting 2 weeks, mice were fasted overnight before the D-leucine was administered in drinking water.
# […] Louis, Mo., U.S.A.) or given D-leucine in drinking water (1.5% w/v) for 13 days after an initial overnight fast. […] Louis, Mo., U.S.A.).
# Each mouse was tested for seizures only once. Personnel performing seizure testing and assessments were blinded to treatment group assignments. Seizure tests were performed 3 h following a single dose of D-leucine, 15-25 min after the administration of kainic acid, or after 13 days of D-leucine exposure in drinking water.
# Kainic acid was injected intraperitoneally (22.5-25 mg kainic acid/kg mouse body mass, 5.3 mg/ml PBS, Tocris Bioscience, Ellisville, Mo., U.S.A.) as described previously (Hartman et al., 2012). Mice were observed continuously in plexiglass cages for the duration of the experiment. Seizure behaviors were scored for 2 h using a modified Racine scale (the highest score in a given 5-min block was used): 0, no seizure; 1, immobility; 2, forelimb and/or tail extension; 3, automatisms; 4, forelimb clonus, rearing, and/or falling; 5, repetition of stage 4; 6, tonic-clonic seizures; and 7, death (Hartman et al., 2010). As the mouse behaviors only occur intermittently, the highest seizure score achieved in a 5 min epoch was recorded.
# Probit analyses (used in the 6 Hz test to determine the current where half the mice experienced any seizure behavior, or CC50, was performed using Minitab 16 (State College, Pa., U.S.A.). The level of significance in the 6 Hz test was 0.05. T-tests and one-way ANOVAs were performed using GraphPad Prism 4 (LaJolla, Calif., U.S.A.). In the kainic acid test, one-way ANOVAs were performed for multiple comparisons of 3 treatment groups. When 2 groups were compared in the kainic acid test, the level of significance was 0.01 (because 3-4 parameters were measured simultaneously, this represents a Bonferroni correction of a typical level of significance of 0.05).
# 6 Hz-induced seizures = experiment: 6 Hz test; type: in vivo, mice; settings: D-leucine 1.5% w/v in drinking water for 13 days
# Method: Male NIH Swiss mice (NCI, Frederick, Md., U.S.A.) aged 3-4 weeks were acclimatized to the animal care facility for 1-5 days and housed four per cage. All mice were fed unrestricted normal rodent chow (Teklad Global 2018SX, Madison, Wis., U.S.A.). Only in experiments lasting 2 weeks, mice were fasted overnight before the D-leucine was administered in drinking water. At 5 weeks of age, mice were injected intraperitoneally with D-leucine 3 mg/kg (“low dose”) or 300 mg/kg (“high dose”) body weight (Sigma-Aldrich, St. Louis, Mo., U.S.A.) or given D-leucine in drinking water (1.5% w/v) for 13 days after an initial overnight fast. […] Probit analyses (used in the 6 Hz test to determine the current where half the mice experienced any seizure behavior, or CC50, was performed using Minitab 16 (State College, Pa., U.S.A.). The level of significance in the 6 Hz test was 0.05. T-tests and one-way ANOVAs were performed using GraphPad Prism 4 (LaJolla, Calif., U.S.A.). In the kainic acid test, one-way ANOVAs were performed for multiple comparisons of 3 treatment groups. When 2 groups were compared in the kainic acid test, the level of significance was 0.01 (because 3-4 parameters were measured simultaneously, this represents a Bonferroni correction of a typical level of significance of 0.05).
# AMPA receptor = settings: hippocampal neurons; Gong et al., 2007; cited from earlier work
# [2] = system: maximal electroshock-induced seizures; settings: literature (Peterson, 1991; Kalinichev et al., 2010); cited from earlier work
# amygdala-kindled rats = settings: dose-dependent, Loscher et al., 1994; cited from earlier work
# [3] = system: GAERS (Genetic Absence Epilepsy Rats from Strasbourg) Wistar rats; settings: intracerebroventricular or intrathalamic routes; Koerner et al., 1996; cited from earlier work
# [4] = system: picrotoxin-induced seizures; settings: rats; Skeie et al., 1994; cited from earlier work
# [5] = system: pentylenetetrazol-induced seizures; settings: Dufour et al., 1999, cited from earlier work
# [6] = system: hexafluorodiethyl ether seizures; settings: Gallagher, 1969; cited from earlier work
# [7] = CBIO 10 mg/kg 15 min after kainic acid
# [8] = pretreatment, CBIO 10 mg/kg three hours prior to kainic acid
# [9] = D-leucine 300 mg/kg 15 min after kainic acid (after seizure onset)
# [10] = pretreatment, D-leucine 3 mg/kg i.p. 3 h before kainic acid (23.5 mg/kg)
# [11] = pretreatment, D-leucine 300 mg/kg i.p. 3 h before kainic acid (23.5 mg/kg)
# [12] = D-serine 3 mg/kg 15 min after kainic acid
# [13] = D-serine 300 mg/kg 15 min after kainic acid
smiles,measurement,setting,value
"Oc1noc2ccc(Cl)cc12 [CBIO, 5-chloro-benzo[d]isoxazol-3-ol]",maximum seizure score,[1]; [7],no effect
same,mean seizure score,[1]; [7],decrease
same,number of epochs with a seizure stage ≧2,[1]; [7],decrease
same,latency to seizure stage ≧2,[1]; [8],no effect
same,maximum seizure score,[1]; [8],no effect
same,mean seizure score,[1]; [8],decreased
same,number of epochs with a seizure stage ≧2,[1]; [8],decreased
CC(C)C[C@@H](N)C(=O)O [D-leucine],CC50 (current where half of mice had a convulsion),6 Hz-induced seizures,increased
same,protection against seizures induced by kainic acid,[1]; D-leucine 3 mg/kg 15 min after the onset of seizures (FIGS. 4C-4D),protects against seizures
same,seizure outcome compared with diazepam (10 mg/kg),[1]; D-leucine 3 mg/kg 20 min after kainic acid (25 mg/kg),not inferior to treatment with diazepam
same,mean seizure score,[1]; [9],no effect
same,number of epochs with a seizure score ≧2,[1]; [9],decreased
same,maximum seizure score,"[1]; D-leucine 300 mg/kg 15 min after kainic acid (after seizure onset), trend noted",no effect
same,protection against seizures,"[1]; pretreatment, D-leucine 0.3 mg/kg 3 h before kainic acid (23.5 mg/kg)",did not protect against seizures
same,mean seizure score,[1]; [10],decreased
same,number of epochs with a seizure stage ≧2,[1]; [10],decreased
same,maximum seizure score,"[1]; pretreatment, D-leucine 0.3, 3 or 300 mg/kg vs water, 3 h before kainic acid",no difference between groups
same,latency to onset of seizure stage ≧2,[1]; [11],prolonged
same,mean seizure score,[1]; [11],decreased
same,number of epochs with a seizure stage ≧2,[1]; [11],decreased
same,kainic acid-induced AMPA receptor-mediated current,AMPA receptor,inactive
N[C@H](CO)C(=O)O [D-serine],maximum seizure score,[1]; [12],decrease
same,mean seizure score,[1]; [12],decrease
same,number of epochs with a seizure stage ≧2,[1]; [12],decrease
same,maximum seizure score,[1]; [13],no effect
same,mean seizure score,[1]; [13],decrease
same,number of epochs with a seizure stage ≧2,[1]; [13],decrease
same,protection against maximal electroshock-induced seizures,[2],weak but statistically significant protection
same,after discharge thresholds,amygdala-kindled rats,increases
same,effect on spike wave discharges,[3],no effect
same,kainic acid-induced AMPA receptor-mediated current,AMPA receptor,inhibits
CC(C)C[C@H](N)C(=O)O [L-leucine],protection against picrotoxin-induced seizures,[4],protects
same,protection against pentylenetetrazol-induced seizures,[5]; rats,protects
same,protection against hexafluorodiethyl ether seizures,[6],not
CC(C)CC(=O)C(=O)O [α-ketoisocaproic acid],activity in the PTZ test,[5],not active
